# Where a SMILES comes first, the peptide text is derived from it. Bridges are numbered along the chain shown (N, C = ends).
# Key:
# Type in all cases: cell-based
# glucagon receptor = biological target: T1, glucagon receptor (Homo sapiens, UniProt P47871); test: cAMP synthesis functional assay (firefly luciferase reporter in HEK293 cells), glucagon receptor; settings: Table 1; for Glucagon Receptor relative activity: relative to the native hormone of the indicated receptor; for EC50: Glucagon Receptor EC50, nM
# T1 construct: expressed in transfected cells; host or cells: HEK293
# GLP-1 receptor = biological target: T2, GLP-1 receptor (Homo sapiens, UniProt P43220); test: cAMP synthesis functional assay (firefly luciferase reporter in HEK293 cells), GLP-1 receptor; settings: Table 1; for GLP-1 Receptor relative activity: relative to the native hormone of the indicated receptor
# T2 construct: expressed in transfected cells; host or cells: HEK293
# GIP receptor = biological target: T3, GIP receptor (Homo sapiens, UniProt P48546); test: cAMP synthesis functional assay (firefly luciferase reporter in HEK293 cells), GIP receptor; settings: Table 1; relative to the native hormone of the indicated receptor
# T3 construct: expressed in transfected cells; host or cells: HEK293
# T3 sequence (P48546 22-466): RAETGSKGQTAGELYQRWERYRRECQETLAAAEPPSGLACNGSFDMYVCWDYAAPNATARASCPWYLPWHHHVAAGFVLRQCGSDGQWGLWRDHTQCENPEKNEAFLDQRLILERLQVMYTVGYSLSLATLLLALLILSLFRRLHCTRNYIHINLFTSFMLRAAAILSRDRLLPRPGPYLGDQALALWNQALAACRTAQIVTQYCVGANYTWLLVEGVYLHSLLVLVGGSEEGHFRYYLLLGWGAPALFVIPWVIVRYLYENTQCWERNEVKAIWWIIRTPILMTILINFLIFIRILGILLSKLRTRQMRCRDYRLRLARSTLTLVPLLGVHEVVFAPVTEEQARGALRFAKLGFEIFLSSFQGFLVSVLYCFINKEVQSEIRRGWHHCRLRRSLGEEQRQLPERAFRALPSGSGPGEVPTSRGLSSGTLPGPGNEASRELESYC
# T1 sequence (P47871 26-477): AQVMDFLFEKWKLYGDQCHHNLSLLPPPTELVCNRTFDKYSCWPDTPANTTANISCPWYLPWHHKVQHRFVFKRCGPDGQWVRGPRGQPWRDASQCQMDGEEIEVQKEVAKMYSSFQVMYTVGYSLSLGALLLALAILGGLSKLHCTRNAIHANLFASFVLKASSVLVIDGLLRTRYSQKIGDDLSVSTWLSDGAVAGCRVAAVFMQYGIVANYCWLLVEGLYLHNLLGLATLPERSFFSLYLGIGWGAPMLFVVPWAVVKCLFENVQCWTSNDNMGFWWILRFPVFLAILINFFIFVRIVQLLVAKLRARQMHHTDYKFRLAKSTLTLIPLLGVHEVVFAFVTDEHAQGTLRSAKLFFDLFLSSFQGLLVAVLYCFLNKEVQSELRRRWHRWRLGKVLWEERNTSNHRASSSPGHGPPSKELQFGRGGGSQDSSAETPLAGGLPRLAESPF
# T2 sequence (P43220 24-463, species assumed): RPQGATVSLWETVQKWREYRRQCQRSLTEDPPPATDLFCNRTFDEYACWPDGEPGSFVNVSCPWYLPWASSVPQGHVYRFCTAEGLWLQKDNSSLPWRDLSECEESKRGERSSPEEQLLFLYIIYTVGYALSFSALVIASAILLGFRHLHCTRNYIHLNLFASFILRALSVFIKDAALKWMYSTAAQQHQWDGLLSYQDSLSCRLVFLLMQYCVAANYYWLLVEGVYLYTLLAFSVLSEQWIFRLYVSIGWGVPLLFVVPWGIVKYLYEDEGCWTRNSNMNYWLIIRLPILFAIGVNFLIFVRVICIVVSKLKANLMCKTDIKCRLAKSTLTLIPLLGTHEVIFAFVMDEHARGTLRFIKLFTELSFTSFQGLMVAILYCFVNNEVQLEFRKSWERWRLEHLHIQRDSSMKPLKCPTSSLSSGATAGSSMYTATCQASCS
SMILES,Glucagon Receptor relative activity (glucagon receptor),GLP-1 Receptor relative activity (GLP-1 receptor),GIP Receptor relative activity (GIP receptor),EC50 (glucagon receptor),"EC50 (GLP-1 receptor; GLP-1 Receptor EC50, nM)"
CC[C@H](C)[C@H](NC(=O)[C@H](CO)NC(=O)[C@H](Cc1ccc(O)cc1)NC(=O)[C@H](CC(=O)O)NC(=O)[C@H](CO)NC(=O)[C@@H](NC(=O)[C@H](Cc1ccccc1)NC(=O)[C@@H](NC(=O)CNC(=O)[C@H](CCC(=O)O)NC(=O)[C@H](C)NC(=O)[C@@H](N)Cc1ccc(O)cc1)[C@@H](C)O)[C@@H](C)CC)C(=O)N[C@@H](C)C(=O)N[C@@H](CCSC)C(=O)N[C@@H](CC(=O)O)C(=O)N[C@@H](CCCCN)C(=O)N[C@H](C(=O)N[C@@H](Cc1c[nH]cn1)C(=O)N[C@@H](CCC(N)=O)C(=O)N[C@@H](CCC(N)=O)C(=O)N[C@@H](CC(=O)O)C(=O)N[C@@H](Cc1ccccc1)C(=O)N[C@H](C(=O)N[C@@H](CC(N)=O)C(=O)N[C@@H](Cc1c[nH]c2ccccc12)C(=O)N[C@@H](CC(C)C)C(=O)N[C@@H](CC(C)C)C(=O)N[C@@H](C)C(=O)N[C@@H](CCC(N)=O)C(=O)N[C@@H](CCCCN)C(=O)NCC(=O)N[C@@H](CCCCN)C(=O)N[C@@H](CCCCN)C(=O)N[C@@H](CC(N)=O)C(=O)N[C@@H](Cc1c[nH]c2ccccc12)C(=O)N[C@@H](CC(C)C)C(=O)N[C@@H](CCCCN)C(=O)N[C@@H](Cc1c[nH]cn1)C(=O)N[C@@H](CC(N)=O)C(=O)N[C@H](C(=O)N[C@H](C(=O)N[C@@H](CCC(N)=O)C(N)=O)[C@@H](C)O)[C@@H](C)CC)C(C)C)[C@@H](C)CC [mt-99],0.00%,0.00%,100.00%,–,–
CC[C@H](C)[C@H](NC(=O)[C@H](Cc1ccccc1)NC(=O)[C@H](CCC(=O)O)NC(=O)[C@@H]1CCCCNC(=O)CC[C@H](NC(=O)[C@H](CC(=O)O)NC(=O)[C@H](CC(C)C)NC(=O)[C@H](Cc2ccc(O)cc2)NC(=O)[C@H](CCCCN)NC(=O)[C@H](CO)NC(=O)[C@H](Cc2ccc(O)cc2)NC(=O)[C@H](CC(=O)O)NC(=O)[C@H](CO)NC(=O)[C@@H](NC(=O)[C@H](Cc2ccccc2)NC(=O)[C@@H](NC(=O)CNC(=O)[C@H](CCC(N)=O)NC(=O)[C@H](CO)NC(=O)[C@@H](N)Cc2c[nH]cn2)[C@@H](C)O)[C@@H](C)O)C(=O)N[C@@H]([C@@H](C)CC)C(=O)N[C@@H](Cc2c[nH]cn2)C(=O)N[C@@H](CCC(N)=O)C(=O)N1)C(=O)N[C@@H](C)C(=O)N[C@@H](Cc1c[nH]c2ccccc12)C(=O)N[C@@H](CC(C)C)C(=O)N[C@@H](CCSC)C(=O)N[C@@H](CC(N)=O)C(=O)N[C@H](C(N)=O)[C@@H](C)O [mt-61],172.73%,22.22%,0.83%,0.11 nM,–
CC[C@H](C)[C@H](NC(=O)[C@H](CO)NC(=O)[C@H](Cc1ccc(O)cc1)NC(=O)[C@H](CC(=O)O)NC(=O)[C@H](CO)NC(=O)[C@@H](NC(=O)[C@H](Cc1ccccc1)NC(=O)[C@@H](NC(=O)CNC(=O)[C@H](CCC(N)=O)NC(=O)[C@H](C)NC(=O)[C@@H](N)Cc1ccc(O)cc1)[C@@H](C)O)[C@@H](C)O)C(=O)N[C@@H](Cc1ccc(O)cc1)C(=O)N[C@@H](CCSC)C(=O)N[C@@H](CC(=O)O)C(=O)N[C@H]1CCC(=O)NCCCC[C@@H](C(=O)N[C@@H](CCC(=O)O)C(=O)N[C@@H](Cc2ccccc2)C(=O)N[C@H](C(=O)N[C@@H](CC(N)=O)C(=O)N[C@@H](Cc2c[nH]c3ccccc23)C(=O)N[C@@H](CC(C)C)C(=O)N[C@@H](CC(C)C)C(=O)N[C@@H](C)C(=O)NCC(=O)NCC(=O)N2CCC[C@H]2C(=O)N[C@@H](CO)C(=O)N[C@@H](CO)C(=O)NCC(=O)N[C@@H](C)C(=O)N2CCC[C@H]2C(=O)N2CCC[C@H]2C(=O)N2CCC[C@H]2C(=O)N[C@@H](CO)C(N)=O)C(C)C)NC(=O)[C@H](C)NC(=O)[C@H](C)NC(=O)[C@H](CCC(N)=O)NC1=O [mt-144] (H-YAQGTFTSDYSIYMDEQAAKEFVNWLLAGGPSSGAPPPS-NH2; lactam 16-20; N-terminus assumed),16.77%,141.67%,18.54%,–,0.036 nM
CC[C@H](C)[C@H](NC(=O)[C@H](Cc1ccccc1)NC(=O)[C@H](CCC(=O)O)NC(=O)[C@@H]1CCCCNC(=O)CC[C@H](NC(=O)[C@H](CC(=O)O)NC(=O)[C@H](CC(C)C)NC(=O)[C@H](Cc2ccc(O)cc2)NC(=O)[C@H](CCCCN)NC(=O)[C@H](CO)NC(=O)[C@H](Cc2ccc(O)cc2)NC(=O)[C@H](CC(=O)O)NC(=O)[C@H](CO)NC(=O)[C@@H](NC(=O)[C@H](Cc2ccccc2)NC(=O)[C@@H](NC(=O)CNC(=O)[C@H](CCC(N)=O)NC(=O)[C@H](CO)NC(=O)[C@@H](N)Cc2ccc(O)cc2)[C@@H](C)O)[C@@H](C)O)C(=O)N[C@@H](CCC(N)=O)C(=O)N[C@@H](C)C(=O)N[C@@H](C)C(=O)N1)C(=O)N[C@@H](C)C(=O)N[C@@H](Cc1c[nH]c2ccccc12)C(=O)N[C@@H](CC(C)C)C(=O)N[C@@H](CCSC)C(=O)N[C@@H](CC(N)=O)C(=O)NCC(=O)NCC(=O)N1CCC[C@H]1C(=O)N[C@@H](CO)C(=O)N[C@@H](CO)C(=O)NCC(=O)N[C@@H](C)C(=O)N1CCC[C@H]1C(=O)N1CCC[C@H]1C(=O)N1CCC[C@H]1C(=O)N[C@@H](CO)C(N)=O [mt-120] (H-YSQGTFTSDYSKYLDEQAAKEFIAWLMNGGPSSGAPPPS-NH2; lactam 16-20; N-terminus assumed),259.46%,13.45%,1.81%,–,–
CC(C)C[C@H](NC(=O)[C@H](CC(C)C)NC(=O)[C@H](Cc1c[nH]c2ccccc12)NC(=O)[C@H](CC(N)=O)NC(=O)[C@@H](NC(=O)[C@H](Cc1ccccc1)NC(=O)[C@H](CCC(=O)O)NC(=O)[C@H](CCCCN)NC(=O)[C@H](C)NC(=O)[C@H](C)NC(=O)[C@H](CCC(N)=O)NC(=O)[C@@H]1CCC(=O)NCCCC[C@H](NC(=O)[C@H](CO)NC(=O)[C@H](Cc2ccc(O)cc2)NC(=O)[C@H](CC(=O)O)NC(=O)[C@H](CO)NC(=O)[C@@H](NC(=O)[C@H](Cc2ccccc2)NC(=O)[C@@H](NC(=O)CNC(=O)[C@H](CCC(N)=O)NC(=O)[C@H](CO)NC(=O)[C@@H](N)Cc2ccc(O)cc2)[C@@H](C)O)[C@@H](C)O)C(=O)N[C@@H](Cc2ccc(O)cc2)C(=O)N[C@@H](CC(C)C)C(=O)N[C@@H](CC(=O)O)C(=O)N1)C(C)C)C(=O)N[C@@H](C)C(=O)NCC(=O)NCC(=O)N1CCC[C@H]1C(=O)N[C@@H](CO)C(=O)N[C@@H](CO)C(=O)NCC(=O)N[C@@H](C)C(=O)N1CCC[C@H]1C(=O)N1CCC[C@H]1C(=O)N1CCC[C@H]1C(=O)N[C@@H](CO)C(N)=O [mt-155] (H-YSQGTFTSDYSKYLDEQAAKEFVNWLLAGGPSSGAPPPS-NH2; lactam 12-16; N-terminus assumed),10.93%,98.99%,7.02%,1.28 nM,–
